Measured values from US20170205396A1, “SYSTEMS AND METHODS FOR CULTURING NEPHRON PROGENITOR CELLS” (Salk Institute for Biological Studies, priority 2016, published 2017).

How the values were obtained:
[1] = system: nephron organoids; test: Mouse nephron organoid generation and chemical treatment; assay type: cell-based
Source text: Given kidney's primary function in plasma filtration and metabolic homeostasis, drug-induced nephrotoxicity is common and constitutes a major consideration during the development of new therapeutic drugs. Currently, drug toxicity screening is largely performed using monolayer cultured immortalized kidney cells. Cells in monolayer culture, however, lack an intact 3D nephron structure and are thus limited for accurate prediction of a drug's effect on kidney function. Another layer of complexity during drug screening using immortalized cell lines relates to genetic abnormalities. […] A screen was done to determine conditions that allow efficient organoid generation from srNPCs. […] Committed srNPCs were designated as fate-specified NPCs or FS-NPCs. FS-NPCs could further differentiate autonomously and form nephron organoids marked by numerous tubular formations (FIG. 3B). Whole-mount staining of obtained nephron organoids identified numerous PODXL+/WT1+ glomeruli, LTL+ proximal tubules and CDH1+ distal tubules. The transition from srNPCs via FS-NPCs to nephron organoids was rapid (as short as 7 days), highly efficient and composed of all major nephron segments representing the glomeruli and proximal and distal tubules.
In vivo, NPCs first differentiate to pretubular aggregates (PTA) and renal vesicles (RV) before further maturation to form the segmented renal tubules. To determine which stage FS-NPCs likely correspond to, the expression of common PTA and RV markers was checked. […] Immunofluorescence studies confirmed protein expression of both PTA/RV markers (LHX1 and PAX8) and NPC markers (SIX2 and SALL1) in FS-NPCs.
The utility of srNPC-derived organoids for renal toxicity testing was determined. […]
CD2AP is an important interacting protein for NEPHRIN and PODOCIN and is necessary for proper glomerulus functions and mutations in CD2AP are associated with sporadic nephrotic syndrome and focal segmental glomerulosclerosis (FSGS). […] Consistent with the hypothesis, Cd2ap was expressed in wild type (#2) while barely detected in gene-disrupted (#1 and #3) organoids (FIG. 3E). […]

[2] = system: Six2-GFP+ NPCs; test: NPSR-based 3D aggregate culture of primary NPCs (srNPC derivation, long-term expansion, component withdrawal); assay type: cell-based, mouse; conditions: each of six components subtracted, period as short as 4 days
Source text: NPCs in mouse first appear around embryonic day 11.5 (E11.5) and mark the onset of nephrogenesis. In mice, NPCs exhaust shortly after birth, around postnatal day 3 (P3), after their last wave of differentiation into nephrons. Lineage tracing experiments have established SIX2 as a specific NPC marker. Available mouse strain with GFP cassette knocked in the Six2 locus (Six2^GCE) facilitates purification of Six2-GFP+ population from embryonic or neonatal mouse kidneys by fluorescence activated cell sorting (FACS). To screen for conditions conducive to in vitro expansion of NPCs Six2-GFP+ cells were isolated from E13.5 embryonic kidneys of Six2^GCE mice. Considering that in vivo NPCs are tightly packed together, it was hypothesized that the cell-cell contact might play a role in their survival and proliferation. Thus, to better preserve the native microenvironment, sorted Six2-GFP+ NPCs were transferred into U-bottom low-attachment 96-well plates to form 3D aggregates. In base medium supplemented with serum alone NPC aggregates could form.
The optimal condition supportive of NPC self-renewal in vitro was determined by screening growth factors and chemical inhibitors for known signaling pathways implicated in regulating NPC survival, self-renewal, and differentiation in vivo as well as other signaling pathways that were not previously reported. Cell viability, growth rate, and GFP signal were considered among other criteria. Through successive testing a novel culture condition was established containing a cocktail of BMP7, FGF2, Heparin, Y27632, LIF, and CHIR99021 that promotes long-term in vitro expansion of Six2-GFP+ NPCs with high purity (it was named NPC self-renewal medium, or NPSR medium) (FIG. 1A). Of note is that isolated Six2+ NPCs have been propagated in this culture for more than one year and more than 70 passages. The established NPC lines were designated as self-renewable NPCs (srNPCs) due to their unlimited proliferative potential. srNPCs grow fast under this culture condition. Starting with 3,000 cells, after 5 days, the aggregate can grow to around 1 mm in diameter containing around 100,000 cells (FIG. 1B and FIG. 1C). srNPC aggregates maintain stable growth rate after long term passages with 6 to 7 doublings per passage (FIG. 1D). […] Moreover, similar results were obtained when SIX2 and other NPC marker gene expressions were quantified by immunostaining: SIX2+ (˜96.2%), SALL1+ (˜99.1%), CITED1+ (˜96.1%) (FIG. 1E). […] To this end each of the six components were subtracted from NPSR medium and evaluated the effects on srNPCs.
It was determined whether NPSR culture could also support the derivation of srNPCs from other developmental stages harboring Six2+ populations. […]

Compound | effect of removal of the component from NPSR medium on srNPCs [2] | further results
C[C@H](NC(=O)Cc1cc(F)cc(F)c1)C(=O)N[C@H](C(=O)OC(C)(C)C)c1ccccc1 [DAPT] |  | effect on proximal tubule and glomerulus differentiation ([1]; 5 μM, day 2 to day? (FS-NPCs to nephron organoids)): both proximal tubules and glomerulus differentiation were inhibited
C[C@@H](N)[C@H]1CC[C@H](C(=O)Nc2ccncc2)CC1 [Y27632] | slower cell growth | 
FGF2: fibroblast growth factor, NPSR medium component | slower cell growth | 
Heparin | slower cell growth | 
LIF: leukemia inhibitory factor protein, an interleukin 6 class cytokine | loss of GFP signal | 
lipopolysaccharide [LPS] |  | glomerulus injury in nephron organoids (morphology, active Caspase 3) ([1]; 20 μg/ml, two-day exposure, day 7 organoids): specific damages in the glomerulus; apoptotic cells (active Caspase 3) in Cd2ap-deficient versus wild type organoids ([1]; low dosage 10 μg/ml, two days, tetO srNPC lines): accumulated more apoptotic cells than the wild type
